Consider eight molecules from ChEMBL document CHEMBL3044719, “Synthesis of pyrazole-based 1,5-diaryl compounds as potent anti-inflammatory agents” (2012).

Experiment [1] has as its system Rattus norvegicus. Briefly: Anti-inflammatory activity in Rattus norvegicus Wistar albino (rat) assessed as inhibition of carrageenan-induced paw edema after 180 min (reference value: 22.3%). Format: functional.
The subject of experiment [2] is Rattus norvegicus. Briefly: Anti-inflammatory activity in Rattus norvegicus Wistar albino (rat) assessed as inhibition of carrageenan-induced paw edema after 30 min (reference value: 30.1%). It is filed as functional.
Experiment [3] relates to Rattus norvegicus. Nature of the experiment: Anti-inflammatory activity in Rattus norvegicus Wistar albino (rat) assessed as growth of carrageenan-induced paw edema after 90 min (reference value: 1.36 +/- 0.070%). Format: functional. For orientation: The carrageenan paw model is a standard test of acute inflammation.
For experiment [4], the system named is Rattus norvegicus. Nature of the experiment: Anti-inflammatory activity in Rattus norvegicus Wistar albino (rat) assessed as growth of carrageenan-induced paw edema after 30 min (reference value: 1.27 +/- 0.043%). Format: functional.
For experiment [5], the system named is Rattus norvegicus. Briefly: Anti-inflammatory activity in Rattus norvegicus Wistar albino (rat) assessed as inhibition of carrageenan-induced paw edema after 90 min (reference value: 38.7%).

Regarding `COC(=O)c1c(C)nn(-c2ccccc2)c1OCCCOc1c(C(=O)OC)c(C)nn1-c1ccccc1`, the “inhibition (INH)” value in the experiment on Rattus norvegicus [1] was 17.9%; in the experiment on Rattus norvegicus [2], 15.1%; in the experiment on Rattus norvegicus [5] it was 24.4%. For the same molecule, the Activity in the experiment with Rattus norvegicus [3] is reported as 1.49%; with Rattus norvegicus [4], 1.34%.
`COC(=O)c1c(C)nn(-c2ccccc2)c1OCCCN1C(=O)c2ccccc2C1=O`: the results for the “inhibition (INH)” value in the experiment on Rattus norvegicus [1], in the experiment with Rattus norvegicus [2] and in the experiment on Rattus norvegicus [5] were 1.7%, 5.9% and 4.8%, respectively. The figures for the Activity in the experiment with Rattus norvegicus [3] and in the experiment on Rattus norvegicus [4] were 1.39% and 1.25%, respectively.
With `CCOC(=O)c1c(C)nn(-c2ccccc2)c1OCCCN1C(=O)c2ccccc2C1=O`, the “inhibition (INH)” value is 39.3% with Rattus norvegicus [1], 38.9% with Rattus norvegicus [2] and 44.7% in the experiment with Rattus norvegicus [5]. The Activity in the experiment with Rattus norvegicus [3] was 1.18%; in the experiment with Rattus norvegicus [4], 1.11%.
`COC(=O)c1c(C)nn(-c2ccccc2)c1OCCCn1c(C)cc(C)c(C#N)c1=O`: the “inhibition (INH)” value turned out to be 18.5% in the experiment with Rattus norvegicus [1], 17.6% in the experiment on Rattus norvegicus [2] and 29.7% in the experiment with Rattus norvegicus [5]. For the same molecule, the results for the Activity in the experiment on Rattus norvegicus [3] and in the experiment with Rattus norvegicus [4] were 1.03% and 0.94%, respectively.
As for `CCOC(=O)c1c(C)nn(-c2ccccc2)c1OCCCn1c(C)cc(C)c(C#N)c1=O`, the “inhibition (INH)” value was found to be 20.4% with Rattus norvegicus [1], 22.4% in the experiment with Rattus norvegicus [2] and 28.5% with Rattus norvegicus [5]. Also, the Activity is reported as 1.16% in the experiment with Rattus norvegicus [3] and 1.05% with Rattus norvegicus [4].
For the molecule `COC(=O)c1c(C)nn(-c2ccccc2)c1OCCCOc1nc(C)cc(C)c1C#N`, the “inhibition (INH)” value was 24.9% in the experiment with Rattus norvegicus [1], 16.8% in the experiment on Rattus norvegicus [2] and 28.7% in the experiment on Rattus norvegicus [5]. Besides, the Activity was 0.92% in the experiment with Rattus norvegicus [3] and 0.81% in the experiment on Rattus norvegicus [4].
Regarding `CCOC(=O)c1c(C)nn(-c2ccccc2)c1OCCCOc1nc(C)cc(C)c1C#N`, the “inhibition (INH)” value with Rattus norvegicus [1] worked out at 16.8%; in the experiment with Rattus norvegicus [2], 21.4%; in the experiment on Rattus norvegicus [5], 24.6%. The Activity was 1.18% in the experiment with Rattus norvegicus [3] and 1.22% with Rattus norvegicus [4].
For the molecule `CS(=O)(=O)Nc1ccc([N+](=O)[O-])cc1Oc1ccccc1` [NIMESULIDE], the “inhibition (INH)” value was found to be 2.54% in the experiment with Rattus norvegicus [1], 10.8% with Rattus norvegicus [2] and 7.9% in the experiment with Rattus norvegicus [5]. Moreover, the Activity in the experiment with Rattus norvegicus [3] amounted to 1.25%; with Rattus norvegicus [4], 1.29%.
